The values that follow come from patent publication US11286263B2, “Macrocyclic fluorine substituted indole derivatives” (The Broad Institute, Inc., priority 2017, dated 2022).

Data set [1] deals with SUDHL10. In words: Induction of cytotoxicity, SUDHL10 (Assay 6). As to conditions: read-out: IC50 Cytotox SUDHL10 [M] (median), SUDHL10 cells, 5 h, CellTiter-Glo.
Procedure: (§11) In principle, compounds that induce apoptosis will concomitantly induce cell cytotoxicity. Therefore, cytotoxicity assays were run in parallel in SUDHL5 and SUDHL10 cells.
(§12) The different cell lines were plated in culture medium (RPMI 1640 [GIBCO #22400-089] supplemented with 10% Fetal Bovine Serum) at a density of 3,300 cells in 30 μl/well in a sterile, solid black, flat bottom, polystyrene, TC-treated 384-well microplate (Corning #3571) using Multidrop Combi Reagent Dispenser. As a control, medium without cells was also added to the plate. Cells were incubated in a humidified incubator at 37° C. overnight. On the next day, the cells were treated with compounds (stock solution, 10 mM in DMSO) using the HP D300 Digital Dispenser in a concentration range of 3.3×10e-5 M (33 μM) to 5×10e-9 M (5 nM) in a single-dot curve with at least 16 dilutions and a DMSO concentration of 0.33%. Rim wells were excluded. The cells were incubated for 5 h hours in a humidified incubator at 37° C. After this incubation, 30 μl of CellTiter-Glo® Luminescent Cell Viability reagent (Promega, G7573) was added to each well using the Multidrop Combi Reagent Dispenser, followed by 15 min incubation on a shaker at room temperature. Finally, luminescence was read at 0.1 ms, with a gain of 3000 using the PHERAstar FS microplate reader (BMG Labtech).
(§13) The Bella DRC Master Sheet was used to calculate IC50s, with fixed CI=0 and C0=1.
The subject of data set [2] is SUDHL5. The data set is described as follows: Antiproliferation assay SUDHL5 (Assay 7). The format is cell-based. The settings on record: SUDHL5 cells, CellTiter-Glo, median, read-out: IC50 Antiproli SUDHL5 [M] (median). On the procedure:
(§1) Assessment of the Anti-Proliferative Effect of Compounds in Different Cell Lines
(§2) The impact of compounds on the proliferation of different cell lines was assessed using the CellTiter-Glo® Luminescent Cell Viability reagent from Promega (G7573).
(§3) In parallel, cells were plated in a reference (day 0) plate for time zero determination.
(§4) Rim wells were excluded. The cells were incubated for 72 h hours in a humidified incubator at 37° C. The day 0 plate was measured by adding 30 μL/well of CTG solution (CellTiter-Glo® Luminescent Cell Viability reagent, Promega G7573) to time zero wells in the reference plate followed by a 10 minutes incubation and luminescence reading at 0.1 ms. using the PHERAstar FS microplate reader (BMG Labtech).
(§5) After 72 h incubation, the treated plates were measured in the same way as the day 0 plate mentioned above.

Data set [3] has as its system SUDHL5. In words: Induction of caspase-3/7 activity, SUDHL5 (Assay 4). In kind it is cell-based. The settings on record: SUDHL5 cells. The method, then:
(§6) Induction of Caspase-3/7 Activity upon Treatment of Cells with Selected Compounds
(§7) The BH3-domain of MCL-1 sequesters pro-apoptotic proteins, thereby inhibiting apoptosis. In contrast, MCL-1 inhibitors are expected to antagonize this effect leading to an increase in apoptosis, which can be determined by measuring the activity of caspase-3/7.
(§8) The activity of caspase-3/7 was determined in DLBCL (Diffuse large B-cell lymphoma) cell lines (SUDHL5 and SUDHL10) upon treatment with different compounds, using the Caspase-Glo® 3/7 reagent from Promega (G8092).
(§9) Rim wells were excluded. The cells were incubated for 3 h hours in a humidified incubator at 37° C.
(§10) For the evaluation of the results, the background measured with “medium-only” was subtracted from all other values. […] The Bella DRC Master Sheet was used to calculate EC50s, with fixed C0=1 and Cl=plateau/max induction for the reference compound.

The next data set concerns the target MCL-1 (Homo sapiens (Human), UniProt Q07820, K194A/K197A/R201A). In words: Protein-protein interaction assay MCL-1/Noxa BH3 peptide (MCL-1 assay), TR-FRET. As to conditions: MCL-1/Noxa BH3 peptide TR-FRET; median. The format is binding. On the procedure: Protein-Protein Interaction Assay: MCL-1/Noxa BH3 Peptide (MCL-1 Assay)
The dose-dependent inhibition by the compounds described in this invention of the interaction between MCL-1 and the BH3 domain of Noxa (both human) was determined using a steady state binding competition assay with time-resolved fluorescence energy transfer (TR-FRET) readout. For that purpose MCL-1 (amino acids 173-321, N-terminal fused to Maltose Binding Protein (MBP) SEQ ID 1)) and a synthetic Noxa BH3-derived peptide of sequence Biotin-PEG2-PEG2-PAELEVE-Nva-ATQLRRFGDKLNFRQKLL-amide (SEQ ID 2) served as protein receptor and tracer ligand respectively. The MBP-MCL-1 was purchased from Beryllium (Bedford, Mass., USA). The expression and purification of this protein construct has been described elsewhere (DOI:10.1371/journal.pone.0125010). The Noxa BH3-derived peptide can be obtained from e.g. Biosyntan (Berlin, Germany).
In the assay 11 different concentrations of each compound (0.1 nM, 0.33 nM, 1.1 nM, 3.8 nM, 13 nM, 44 nM, 0.15 μM, 0.51 μM, 1.7 μM, 5.9 μM and 20 μM) were typically measured as duplicates in the same microtiter plate. For that, 100-fold concentrated DMSO solutions were prepared by serial dilutions (1:3.4) of a 2 mM stock solution in a clear, 384-well microtiter plate (Greiner Bio-One, Frickenhausen, Germany). From there, 50 nl were transferred in a dark test plate (Greiner Bio-One, Frickenhausen, Germany). The assay was initiated by addition of 2 μl of a 2,5-fold concentrated MBP-MCL-1 solution (usually for a 1 nM end concentration in 5 μl reaction volume) in aqueous assay buffer [50 mM Tris/HCl pH 7, 100 mM sodium chloride (NaCl), 50 mM potassium fluoride (KF), 0.005% Tween-20, 2 mM DTT, 0.1% bovine gamma globulin (BGG)] to the compounds in the assay plate. This was followed by a 10-minute incubation step at 22° C. for pre-equilibration of the putative complex between MBP-MCL-1 and the compounds. After that, 3 μl of a 1.67-fold concentrated solution (in assay buffer) consisting of Noxa BH3-derived peptide (1 nM end concentration) and TR-FRET detection reagents [1.67 nM anti-MBP-Eu cryptate and 1.67 nM streptavidin-XL665 (both from Cisbio Bioassays, Codolet, France)], were added.
The mixture was incubated in the dark for one hour at 22° C. and then overnight at 4° C. The formation of MCL-1/Noxa complexes was determined by measuring the resonance energy transfer of the anti-MBP-Eu-cryptate antibody to the streptavidin-XL665 present in the reaction. For that purpose, the fluorescence emission at 620 nm and 665 nm after excitation at 330-350 nm was measured in a TR-FRET measuring instrument, for instance a Rubystar or a Pherastar (both from BMG Lab Technologies, Offenburg, Germany) or a Viewlux (Perkin-Elmer). The ratio of the emission at 665 nm and at 622 nm was used as indicator of the amount of MCL-1/NOXA complexes present.
The resulting data (ratio) were normalized, taking 0% inhibition as the mean value of control measurements (usually 32 data points) where all reagents were included. In this case 50 nl DMSO were used instead of compounds. A 100% inhibition corresponded to the mean value of control measurements (usually 32 data points) where all reagents except MCL-1 were included. IC50 values were determined by regression analysis based on a 4 parameter equation (minimum, maximum, IC50, Hill; Y=Max+(Min−Max)/(1+(X/IC50)^Hill) using the Screener Software (Genedata).

For a further data set, the system named is A2780. The data set is described as follows: Antiproliferation assay A2780 (Assay 7). The format is cell-based. As to conditions: A2780 cells, CellTiter-Glo, single determinations, read-out: IC50 Antiproli A2780. The method, then: as §1, §2, §3, §4, §5
The test system of another data set is AMO-1. In words: Antiproliferation assay AMO-1 (Assay 7). The format is cell-based. As to conditions: AMO-1 cells, CellTiter-Glo, single determinations, read-out: IC50 Antiproli AMO-1. On the procedure: as §1, §2, §3, §4, §5
On the technique in general: Cellular ATP, detected with luciferase, serves as a proxy for viable cell number.

Data set [4] has as its system SUDHL10. In words: Induction of caspase-3/7 activity, SUDHL10 (Assay 4). The settings on record: SUDHL10 cells. In kind it is cell-based. The method, then:
as §6, §7, §8, §9, §10

Data set [5] concerns SUDHL10. The data set is described as follows: Antiproliferation assay SUDHL10 (Assay 7). The format is cell-based. The settings on record: Homo sapiens, SU-DHL10; SUDHL10 cells, 72 h, CellTiter-Glo; median; read-out: IC50 Antiproli SUDHL10 [M] (median). On the procedure:
as §1, §2, §3, §4, §5

Data set [6] concerns SUDHL5. The data set is described as follows: Induction of cytotoxicity, SUDHL5 (Assay 6). As to conditions: read-out: IC50 Cytotox SUDHL5 [M] (median), SUDHL5 cells, 5 h, CellTiter-Glo.
Procedure: as §11, §12, §13
For another data set, the system named is HMC-1-8. In words: Antiproliferation assay HMC-1-8 (Assay 7). As to conditions: HMC-1-8 cells, 72 h, CellTiter-Glo; single determinations; read-out: IC50 Antiproli HMC-1-8. In kind it is cell-based. On the procedure:
as §1, §2, §3, §4, §5

The next data set deals with MV-4-11. In words: Antiproliferation assay MV-4-11 (Assay 7). The format is cell-based. The settings on record: MV-4-11 cells, 72 h, CellTiter-Glo; single determinations; read-out: IC50 Antiproli MV-4-11. The method, then:
as §1, §2, §3, §4, §5

Where [7] appears, read: Homo sapiens, SU-DHL-5, 3 h, Caspase-Glo 3/7, median.
Setting [8] is: Homo sapiens, SU-DHL10, 3 h, Caspase-Glo 3/7, median.

Where “and” joins values, the source holds several entries; their conditions need not be identical. Equal entries are not always repeated. Where two headings read alike, the source gives them in different places.

MCL-1, sequence (Q07820 whole entry K194A/K197A/R201A, looked up, the tested form may be a part): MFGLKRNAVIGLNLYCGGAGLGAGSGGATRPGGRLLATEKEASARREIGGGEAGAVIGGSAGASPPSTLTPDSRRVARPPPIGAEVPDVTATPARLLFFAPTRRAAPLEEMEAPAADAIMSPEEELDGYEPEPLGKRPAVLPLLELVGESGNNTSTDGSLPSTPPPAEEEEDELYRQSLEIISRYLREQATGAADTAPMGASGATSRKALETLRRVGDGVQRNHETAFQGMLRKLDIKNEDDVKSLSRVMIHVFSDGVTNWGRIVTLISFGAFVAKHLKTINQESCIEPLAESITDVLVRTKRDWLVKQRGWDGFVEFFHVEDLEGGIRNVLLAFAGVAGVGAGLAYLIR

The term IC50 denotes the point on the concentration scale where inhibition reaches its midpoint. Broadly, the EC50 is the concentration giving half of the maximal effect. Consider `CCc1c2c(nn1C)COCCCCn1c(C(=O)O)c(CCCOc3cccc4cc(F)ccc34)c3ccc(F)c-2c31` (racemic) [Example 21, (rac)-12-ethyl-13-fluoro-1-(3-((6-fluoronaphthalen-1-yl)oxy)propyl)-11-methyl-4,5,6,7,9,11-hexahydropyrazolo[4′,3′:9,10][1]oxa[6]azacycloundecino[8,7,6-hi]indole-2-carboxylic acid], for which the IC50 was 8.5e-07 M in the data set on SUDHL10 [1] (Homo sapiens, SU-DHL10, 5 h); 7.3e-07 M with SUDHL5 [2] (Homo sapiens, SU-DHL-5, 72 h); 0.86 nM at MCL-1; 3470 nM with A2780 (Homo sapiens, A2780, 72 h); 942 nM and 1120 nM with AMO-1 (72 h); 1220 nM with AMO-1 (Homo sapiens, AMO1, 72 h). Besides, the half-inhibitory concentration (IC50) with SUDHL10 [5] was determined as 6.3e-07 M; with SUDHL5 [6] (Homo sapiens, SU-DHL-5, 5 h) it was 5.1e-07 M. The 50% effective concentration (EC50) with SUDHL5 [3] (setting [7]) was 350 nM; with SUDHL10 [4] (setting [8]), 900 nM.

Turning to `Cc1c2c(nn1C)COCCCCn1c(C(=O)O)c(CCCOc3cccc4cc(F)ccc34)c3ccc(F)c-2c31` (racemic) [Example 12, (rac)-13-fluoro-1-(3-((6-fluoronaphthalen-1-yl)oxy)propyl)-11,12-dimethyl-4,5,6,7,9,11-hexahydropyrazolo[4′,3′:9,10][1]oxa[6]azacycloundecino[8,7,6-hi]indole-2-carboxylic acid], the IC50 with SUDHL10 [1] (Homo sapiens, SU-DHL10, 5 h) worked out at 8.2e-07 M; in the data set on SUDHL5 [2] (Homo sapiens, SU-DHL-5, 72 h), 6.5e-07 M; at MCL-1, 0.85 nM; in the data set on A2780 (Homo sapiens, A2780, 72 h), 4680 nM; in the data set with AMO-1 (72 h) it was 869 nM; in the data set with AMO-1 (Homo sapiens, AMO1, 72 h), 1510 nM. The IC50 in the data set on SUDHL10 [5] is 7.2e-07 M; with SUDHL5 [6] (Homo sapiens, SU-DHL-5, 5 h), 6e-07 M. For the same molecule, the 50% effective concentration (EC50) with SUDHL5 [3] (setting [7]) stood at 480 nM; in the data set on SUDHL10 [4] (setting [8]), 800 nM.

On to `CCc1c2c(nn1C)COCCCCn1c(C(=O)O)c(CCCOc3cccc4cc(F)ccc34)c3ccc(F)c-2c31` (single isomer, unassigned; enantiomer 2) [Example 25, 3-ethyl-4-fluoro-7-{3-[(6-fluoronaphthalen-1-yl)oxy]propyl}-2-methyl-2,10,11,12,13,15-hexahydropyrazolo[4′,3′:9,10][1,6]oxazacycloundecino[8,7,6-hi]indole-8-carboxylic acid (enantiomer 2)], for which the half-maximal inhibitory concentration (IC50) in the data set with SUDHL10 [1] came to 2.2e-05 M; with SUDHL5 [2] (72 h), 8.1e-06 M; against MCL-1, 13 nM; in the data set with HMC-1-8, 20900 nM; with AMO-1 (72 h) it was 32800 nM; with SUDHL5 [6] it was 1.2e-05 M. In addition, the EC50 with SUDHL10 [4] (3 h, Caspase-Glo 3/7, median) is greater than 33000 nM.

`Cc1c2c(nn1C)CNCCCCn1c(C(=O)O)c(CCCOc3cccc4ccccc34)c3ccc(F)c-2c31` (single isomer, unassigned; enantiomer 2) [Example 49, 4-fluoro-2,3-dimethyl-7-{3-[(naphthalen-1-yl)oxy]propyl}-10,11,12,13,14,15-hexahydro-2H-pyrazolo[3′,4′:8,9][1,6]diazacycloundecino[10,11,1-hi]indole-8-carboxylic acid (enantiomer 2)]: the half-inhibitory concentration (IC50) in the data set on SUDHL10 [1] was greater than 3.3e-05 M; in the data set on SUDHL5 [2] (72 h) it was 1e-05 M; on MCL-1 it was 40 nM; with A2780 (72 h), 15100 nM; in the data set on AMO-1 (72 h), greater than 33000 nM; in the data set on SUDHL5 [6], greater than 2.7e-05 M. In addition, in the data set with MV-4-11, the IC50 was 18900 nM and 23300 nM. Further, the EC50 is greater than 33000 nM with SUDHL5 [3] (3 h, Caspase-Glo 3/7, median) and greater than 33000 nM with SUDHL10 [4] (3 h, Caspase-Glo 3/7, median).

In the case of `CCc1nn(C)c2c1-c1c(F)ccc3c(CCCOc4cccc5cc(F)ccc45)c(C(=O)O)n(c13)CCCCOC2` (racemic) [Example 38, (rac)-12-ethyl-13-fluoro-1-(3-((6-fluoronaphthalen-1-yl)oxy)propyl)-10-methyl-4,5,6,7,9,10-hexahydropyrazolo[4′,3′:9,10][1]oxa[6]azacycloundecino[8,7,6-hi]indole-2-carboxylic acid], the concentration for half-maximal inhibition (IC50) with SUDHL10 [1] (Homo sapiens, SU-DHL10, 5 h) was 1.4e-06 M; in the data set with SUDHL5 [2] (Homo sapiens, SU-DHL-5, 72 h) it was 9.3e-07 M; at MCL-1, 1.1 nM; with AMO-1 (72 h), 2460 nM and 1610 nM; in the data set with AMO-1 (Homo sapiens, AMO1, 72 h), 2350 nM; in the data set on SUDHL10 [5] it was 1e-06 M. Further, in the data set on SUDHL5 [6] (Homo sapiens, SU-DHL-5, 5 h), the IC50 was determined as 1e-06 M. The EC50 worked out at 870 nM in the data set with SUDHL5 [3] (setting [7]) and 2000 nM in the data set on SUDHL10 [4] (setting [8]).
